Measurements reported in US7807712B2, “Oxy substituted chalcones as antihyperglycemic and antidyslipidemic agents” (priority 2004, dated 2010).
Like-named read-outs stand apart in the source and are kept apart here.

What was measured:
[1] = tested on: sucrose loaded rats; assay: Sucrose loaded rat model (SLM), antihyperglycemic activity; format: in vivo, rat (Charles Foster/Wistar); details: Rattus norvegicus, 2 h; 100 mg/kg oral; sucrose load 10.0 g/kg; AUC vs control, 30-120 min; read-out: % Fall in blood glucose levels SLM
Experimental: Male albino rats of Charles Foster/Wistar strain of average body weight 160±20 g were selected for this study. The blood glucose level of each animal was checked by glucometer using glucostrips (Boehringer Mannheim) after 16 h starvation. Animals showing blood glucose levels between 3.33 to 4.44 mM (60 to 80 mg/dl) were divided into groups of five to six animals in each. Animals of experimental group were administered suspension of the desired synthetic compound orally (made in 1.0% gum acacia) at a dose of 100-mg/kg-body weight. Animals of control group were given an equal amount of 1.0% gum acacia. A sucrose load (10.0 g/kg) was given to each animal orally exactly after 30 min post administration of the test sample/vehicle. Blood glucose profile of each rat was again determined at 30, 60, 90 and 120 min post administration of sucrose by glucometer. Food but not water was withheld from the cages during the course of experimentation. Quantitative glucose tolerance of each animal was calculated by Area Under Curve (AUC) method (Prism Software). Comparing the AUC of experimental and control groups determined the percentage antihyperglycemic activity. Statistical comparison was made by Dunnett's test.

[2] = tested on: triton WR-1339 induced hyperlipidemic rats; assay: Triton model, antidyslipidemic activity; format: in vivo, rat (Charles foster); details: Rattus norvegicus, 100 mg/kg oral
Experimental: Male Charles foster rats weighing 200-225 g were divided into control, hyperlipidemic and hyperlipidemic plus drug treated groups containing six animals in each group. Hyperlipidemia was induced by administration of triton WR-1339 (200 mg/kg i.p.). All animals were maintained on a special pellet diet and water ad libitum. Compounds and standard drug were macerated with 0.2% aqueous gum acacia suspension. The suspension was fed orally at the dose of 100 mg/kg simultaneously with triton in drug treated group. The animals of control group received the same amount of gum acacia by similar route of administration. At the end of the experiment, after 18 h, blood was withdrawn from retro orbital plexus and plasma was used for the assay of total cholesterol, phospholipid and triglycerides.
Cholesterol was estimated using the kit provided by Roche Diagnostics. Cholesterol esters are enzymatically hydrolyzed by cholesterol esterase (CE) to cholesterol and free fatty acids. Free cholesterol, including that originally present, is then oxidized by cholesterol oxidase (CO) to cholest-4-en-3-one and hydrogen peroxide. The hydrogen peroxide combines with hydroxy benzoic acid (HBA) and 4-aminoantipyrine (4AAA) in the presence of peroxidase (POD) to form a chromophore (quinoneimine dye), which may be quantitated at 500-505 nm. The intensity of red colour formed is directly proportional to the concentration of total cholesterol in the specimen and measured spectrophotometrically (Searcy, C. L. Diagnostic Biochemistry, 1969, McGraw Hill, New York; Ellefson, R. D.; Caraway, W. T. Fundamentals of clinical chemistry, 1976, Ed Tietz N W, 506-515.)
Triglycerides were estimated using the kit provided by Roche Diagnostics. Lipoprotein lipase hydrolyses triglycerides to yield glycerol and fatty acids. Glycerol kinase converts glycerol to glycerol-3-phosphate, which is oxidized by glycerol phosphate oxidase to dihydroxy acetone phosphate and hydrogen peroxide. In the presence of peroxidase, hydrogen peroxide oxidatively couples with 4-aminoantipyrine and 4-chloro phenol to produce red quinonimine dye. The intensity of red colour formed is directly proportional to the concentration of triglycerides in the specimen and is measured by photometrically (Wahlefeld, A. W.; Bergmeyer, H. U. Ed. Methods of enzymatic analysis, 2nd English edition, New York, N.Y., Academic press inc, 1831-1840.).
Serum (0.2 mL) and perchloric acid (1.0 mL) was digested at 180° C. for 1-1.5 h till the solution became colorless. The liberated inorganic phosphate (Pi) was measured by the method of Fiske and Subbarow (Fiske, C. H.; Subbarow, V. J. Biol. Chem. 1925, 66, 375.). 1 mL of 2.5% ammonium molybdate (prepared in 5 N sulphuric acid) and 0.5 mL reducing agent (4-amino naphthol sulphonic acid, 0.2%), sodium metabisulphite (2.4% w/v in distilled water) was added to the above tubes and mixed well. The reaction mixture was […] with 2.5 mL of triple distilled water and kept at 60° C. in water bath for 20 min. For standard, an appropriate amount of potassium dihydrogen phosphate dissolved in triple distilled water containing 2-10 μg phosphorus (Pi) was run simultaneously with the experiment tubes. The optical density of the blue colour was recorded at 620 nm against reagent blank. The values of Pi were converted into phospholipid by multiplying with 25 (a constant calibrated from Pi value of lecithin).

[3] = tested on: streptozotocin-induced diabetic rats; assay: Sucrose-challenged streptozotocin-induced diabetic rats (STZ-S), antihyperglycemic activity; format: in vivo, rat (Sprague Dawley); details: 100 mg/kg oral, sucrose load 2.5 g/kg, AUC vs control
Experimental: Male albino rats of Sprague Dawley strain of body weight […] were selected for this study. Streptozotocin (Sigma, USA) was dissolved in 100 mM citrate buffer pH 4.5 and calculated amount of the fresh solution was injected to overnight fasted rats (45 mg/kg) intraperitoneally. Blood glucose level was checked 48 h later by glucostrips and animals showing blood glucose values between 144 to 270 mg/dl (8 to 15 mM) were included in the experiment and termed diabetic. The diabetic animals were divided into groups consisting of five to six animals in each group. Animals of experimental groups were administered suspension of the desired test samples orally (made in 1.0% gum acacia) at a dose of 100-mg/kg-body weight. Animals of control group were given an equal amount of 1.0% gum acacia. A sucrose load of 2.5-g/kg body weight was given after 30 minutes of compound administration. After 30 minutes of post sucrose load blood glucose level was again checked by glucostrips at 30, 60, 90, 120, 180, 240, 300 min and at 24 h, respectively. Animals not found diabetic after 24 hours post treatment of the test sample were not considered and omitted from the calculations and termed as non-responders. […] Food but not water was withheld from the cages during the experimentation. Comparing the AUC of experimental and control groups determined the percent antihyperglycemic activity. Statistical comparison between groups was made by Student's ‘t’ test.

[4] = plasma phospholipid after 18 h, read-out: % Fall in lipid levels (Triton model) PL
[5] = plasma total cholesterol after 18 h, read-out: % Fall in lipid levels (Triton model) TC
[6] = plasma triglycerides after 18 h, read-out: % Fall in lipid levels (Triton model) TG

| Compound | inhibition in vivo at 100 mg/kg [1] [%] | inhibition in vivo at 100 mg/kg [2, 4] [%] | inhibition in vivo at 100 mg/kg [2, 5] [%] | inhibition in vivo at 100 mg/kg [2, 6] [%] | melting point [°C] | % Fall in blood glucose levels STZ-S 24 h [3] | % Fall in blood glucose levels STZ-S 5 h [3] |
| --- | --- | --- | --- | --- | --- | --- | --- |
| COc1ccc(/C=C/C(=O)c2cccc(OCC(O)CNC(C)(C)C)c2)cc1 (stereo not drawn) [Compound 30, 3′-[3-tert-Butylamino-2-hydroxy-propoxy]-4-methoxy-chalcone] | 20 | 25 | 27 | 30 | 83 to 84 | 11.3% | – |
| COc1ccc(/C=C/C(=O)c2ccc(OCC(O)CN3CCN(c4ccccc4OC)CC3)cc2)cc1 (stereo not drawn) [Compound 24, 4′-[2-Hydroxy-3-{4-(2-methoxyphenyl)-piperazin-1-yl}-propoxy]-4-methoxy-chalcone] | 10.8 | 15 | 24 | 14 | 97 to 98 | 6.18% | – |
| COc1ccc(/C=C/C(=O)c2ccc(OCC(O)CN3CCN(c4ccccc4)CC3)cc2)cc1 (stereo not drawn) [Compound 20, 4′-[2-Hydroxy-3-(4-phenylpiperazin-1-yl)-propoxy]-4-methoxy-chalcone] | 7.78 | 11 | 11 | 10 | 165 to 167 | NIL | NIL |
| CCCCNCC(O)COc1ccc(C(=O)/C=C/c2ccc(OC)cc2)cc1 (stereo not drawn) [Compound 27, 4′-[3-n-Butylamino-2-hydroxy-propoxy]-4-methoxy-chalcone] | 38 | 22 | 25 | 20 | 163 to 164 | NIL | NIL |
| COc1ccc(/C=C/C(=O)c2cccc(OCC(O)CNC(C)C)c2)cc1 (stereo not drawn) [Compound 29, 3′-[2-Hydroxy-3-iso-propylamino-propoxy]-4-methoxy-chalcone] | 6.85 | 27 | 33 | 27 | 102 to 103 | NIL | NIL |
